Experimental findings from patent US20240246946A1, “MODULATORS OF TREX1” (Constellation Pharmaceuticals, Inc., priority 2021, published 2024) are described below.

One test has as its target T1, hTREX1 (Homo sapiens, UniProt Q9NSU2).
T1 construct: host or cells: HCT116 dual cells
T1 sequence (Q9NSU2 1-314): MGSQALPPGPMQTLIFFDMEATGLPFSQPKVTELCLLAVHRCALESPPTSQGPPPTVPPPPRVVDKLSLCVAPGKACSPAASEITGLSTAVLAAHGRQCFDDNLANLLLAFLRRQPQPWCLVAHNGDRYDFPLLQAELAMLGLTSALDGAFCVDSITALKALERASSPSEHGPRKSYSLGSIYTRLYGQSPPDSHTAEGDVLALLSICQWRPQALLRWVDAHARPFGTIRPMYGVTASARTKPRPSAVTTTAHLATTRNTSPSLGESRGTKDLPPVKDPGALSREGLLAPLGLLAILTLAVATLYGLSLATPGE
Description: hTREX1 HCT116 Cell Assay (HCT116 dual cells, Lucia luciferase reporter of Type I interferon induction). It counts as cell-based. The note with it: TREX1i 4 h before pBR322/BstNI transfection, read after 48 h. In short, it runs like this: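 HCT116 dual cells carrying an ISRE-type STAT1/STAT2-driven secreted Lucia luciferase reporter were pretreated with TREX1 inhibitor for 4 h (≤0.1% DMSO), then transfected with pBR322/BstNI DNA (100 ng/well, Lipofectamine LTX). Luciferase in medium read after 48 h at 37 °C.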

Another test concerns the target T2, full length human TREX1 (Homo sapiens, UniProt Q9NSU2).
T2 construct: N-terminally His-Tev tagged full length human TREX1; made in house; host or cells: E. coli
T2 sequence (Q9NSU2 1-314): T1 sequence (Q9NSU2 1-314)
Description: hTREX1 Biochemical Assay (fluorescence, dsDNA substrate degradation). The note with it: biochemical, read-out: hTREX1 IC50. In outline:
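Cleavage of 60 nM TEX615/quencher-labelled dsDNA in pH 7.4 Tris buffer with 5 mM MgCl2, 1.0% DMSO, run 18 hours at 25° C, EDTA-quenched; fluorescence read-out.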

The target in a further test is T3, full length mouse TREX1 (Mus musculus, UniProt Q91XB0).
T3 construct: N-terminally His-Tev tagged full length mouse TREX1; made in house; host or cells: E. coli
T3 sequence (Q91XB0 1-314): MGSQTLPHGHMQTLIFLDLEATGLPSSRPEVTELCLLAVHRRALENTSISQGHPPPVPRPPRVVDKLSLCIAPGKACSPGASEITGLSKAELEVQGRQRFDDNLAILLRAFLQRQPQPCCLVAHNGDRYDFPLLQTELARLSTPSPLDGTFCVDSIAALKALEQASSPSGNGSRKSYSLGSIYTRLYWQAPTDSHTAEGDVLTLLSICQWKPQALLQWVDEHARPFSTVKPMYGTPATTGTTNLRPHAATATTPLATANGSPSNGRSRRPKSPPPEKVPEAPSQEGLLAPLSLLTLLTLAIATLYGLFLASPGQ
Put plainly: mTREX1 Biochemical Assay (fluorescence, dsDNA substrate degradation). The note with it: biochemical, read-out: mTREX1 IC50. In short, it runs like this:
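Reaction run 18 h at 25° C. with 60 nM TEX615/quencher-labelled dsDNA and 6 pM mouse TREX1 in Tris buffer (pH 7.4, 5 mM MgCl2, 1.0% DMSO), enzyme having sat 4 h with compound across 10 concentrations. EDTA quench; substrate degradation measured as fluorescence increase.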

For test [1], the target named is T4, human TREX2 (residues M44-A279) (Homo sapiens, UniProt Q9BQ50).
T4 construct: human TREX2 (residues M44-A279, expressed in E. coli); made in house; host or cells: E. coli
T4 sequence (Q9BQ50 44-279 isoform Q9BQ50-1): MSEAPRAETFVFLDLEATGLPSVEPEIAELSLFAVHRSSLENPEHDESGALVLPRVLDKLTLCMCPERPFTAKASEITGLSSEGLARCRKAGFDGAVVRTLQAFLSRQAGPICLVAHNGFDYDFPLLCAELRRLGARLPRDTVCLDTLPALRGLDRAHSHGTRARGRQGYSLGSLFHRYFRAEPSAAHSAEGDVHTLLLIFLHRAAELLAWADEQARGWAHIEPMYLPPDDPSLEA
Put plainly: hTREX2 Biochemical Assay (fluorescence, dsDNA substrate degradation). Particulars: biochemical selectivity for hTREX1 vs hTREX2. In short, it runs like this: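 N-His-Tev E. coli enzyme (50 pM) pre-incubated with compound 4 h at 25 °C, then 60 nM TEX615/quencher dsDNA added; 18 h at 25 °C, pH 7.4 Tris buffer with 5 mM MgCl2, 1.0% DMSO. EDTA-quenched; fluorescence 570 ex/615 em from liberated fluorophore, 10-point dose-response.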

For orientation: IC50 means the concentration that gives 50% inhibition. For the compound `CC(c1nc(C(=O)Nc2cnoc2)c(O)c(=O)n1C)C(c1cnn(C)c1)c1ccccc1C#N` (single isomer, unassigned) [Example 2 D1E2], the IC50 was > 100 nM against hTREX1, > 10 nM at full length human TREX1 and > 10 nM at full length mouse TREX1. Further, the “hTREX1 vs hTREX2 selectivity” value in test [1] is given as “A (A = <25 fold selective for hTREX1)”.

For `CC(c1nc(C(=O)Nc2cnoc2)c(O)c(=O)n1C)C(c1cnn(C)c1)c1ccccc1Cl` (single isomer, unassigned) [Example 77 D1E2], the results for the IC50 at hTREX1, on full length human TREX1 and at full length mouse TREX1 were > 100 nM, > 10 nM and > 10 nM, respectively. In test [1], the “hTREX1 vs hTREX2 selectivity” value was “A (A = <25 fold selective for hTREX1)”.

Consider `CC(c1nc(C(=O)Nc2cnoc2)c(O)c(=O)n1C)C(c1cn[nH]c1)c1ccccc1C#N` (single isomer, unassigned) [Example 12 D2E1], for which the IC50 at hTREX1 is > 100 nM; at full length human TREX1, 1 to 10 nM; at full length mouse TREX1, > 10 nM. Also, in test [1], the “hTREX1 vs hTREX2 selectivity” value is on record as “C (C = >50 fold selective for hTREX1)”.

On to `Cc1ccnn1C(c1cc(F)ccc1Cl)C(C)c1nc(C(=O)Nc2cnoc2)c(O)c(=O)n1C` (single isomer, unassigned) [Example 145 D1E1], for which the values for the IC50 on hTREX1, at full length human TREX1 and at full length mouse TREX1 were 10 to 100 nM, 1 to 10 nM and > 10 nM, respectively. Further, the “hTREX1 vs hTREX2 selectivity” value in test [1] was “B (B = 25 to 50-fold selective for hTREX1)”.

In the case of `Cc1cnc(C(c2ccccc2Cl)C(C)c2nc(C(=O)Nc3cnoc3)c(O)c(=O)n2C)cn1` (single isomer, unassigned) [Example 116 D1E1], the IC50 at hTREX1 is > 100 nM; at full length human TREX1, > 10 nM; at full length mouse TREX1 it was > 10 nM. Moreover, in test [1], the “hTREX1 vs hTREX2 selectivity” value is on record as “A (A = <25 fold selective for hTREX1)”.

Regarding `Cc1cnc(C(c2cc(F)ccc2C#N)C(C)c2nc(C(=O)Nc3cnoc3)c(O)c(=O)n2C)cn1` (single isomer, unassigned) [Example 115 D2E2], the IC50 on hTREX1 is > 100 nM; on full length human TREX1 it was 1 to 10 nM; on full length mouse TREX1, > 10 nM. In addition, the “hTREX1 vs hTREX2 selectivity” value in test [1] is “C (C = >50 fold selective for hTREX1)”.

Consider `CC(c1nc(C(=O)Nc2cnoc2)c(O)c(=O)n1C)C(c1nnn(C)n1)c1ccccc1C#N` (single isomer, unassigned) [Example 79 D1E2], for which the IC50 at hTREX1 is > 100 nM; on full length human TREX1, 1 to 10 nM; on full length mouse TREX1, > 10 nM. In addition, the “hTREX1 vs hTREX2 selectivity” value in test [1] is given as “B (B = 25 to 50-fold selective for hTREX1)”.

For `Cc1nn(C)cc1C(c1ccccc1C#N)C(C)c1nc(C(=O)Nc2cnoc2)c(O)c(=O)n1C` (single isomer, unassigned) [Example 3 D1E1], the IC50 against hTREX1 was < 10 nM; on full length human TREX1, < 1 nM; on full length mouse TREX1 it was < 1 nM. In addition, the “hTREX1 vs hTREX2 selectivity” value in test [1] was “C (C = >50 fold selective for hTREX1)”.

For the compound `CC(c1nc(C(=O)Nc2cnoc2)c(O)c(=O)n1C)C(c1cnn(CC2COC2)c1)c1ccccc1Cl` (single isomer, unassigned) [Example 88 D1E1], the IC50 is > 100 nM at hTREX1, < 1 nM at full length human TREX1 and 1 to 10 nM at full length mouse TREX1. In addition, the “hTREX1 vs hTREX2 selectivity” value in test [1] was “A (A = <25 fold selective for hTREX1)”.

Turning to `CC(c1nc(C(=O)Nc2cnoc2)c(O)c(=O)n1C)C(c1cnn(C)c1)c1ccccc1C#N` (single isomer, unassigned) [Example 2 D2E2], the IC50 against hTREX1 was > 100 nM; at full length human TREX1, > 10 nM; on full length mouse TREX1, > 10 nM. For the same compound, the “hTREX1 vs hTREX2 selectivity” value in test [1] was “A (A = <25 fold selective for hTREX1)”.

For the compound `Cc1cc(C(c2cc(F)ccc2Cl)C(C)c2nc(C(=O)Nc3cnoc3)c(O)c(=O)n2C)n(C)n1` (single isomer, unassigned) [Example 113 D1E1], the figures for the half-inhibitory concentration (IC50) against hTREX1, at full length human TREX1 and at full length mouse TREX1 were 10 to 100 nM, > 10 nM and > 10 nM, respectively. In addition, the “hTREX1 vs hTREX2 selectivity” value in test [1] is “C (C = >50 fold selective for hTREX1)”.

Regarding `Cc1cn(C(c2ccccc2Cl)C(C)c2nc(C(=O)Nc3cnoc3)c(O)c(=O)n2C)cn1` (single isomer, unassigned) [Example 142 D1E2], the IC50 is > 100 nM against hTREX1, < 1 nM on full length human TREX1 and 1 to 10 nM at full length mouse TREX1. Further, the “hTREX1 vs hTREX2 selectivity” value in test [1] is given as “A (A = <25 fold selective for hTREX1)”.

`Cc1cnn(C(c2ccccc2Cl)C(C)c2nc(C(=O)Nc3cnoc3)c(O)c(=O)n2C)c1` (single isomer, unassigned) [Example 133 D1E2]: the half-maximal inhibitory concentration (IC50) was 10 to 100 nM at hTREX1, 1 to 10 nM on full length human TREX1 and 1 to 10 nM on full length mouse TREX1. The “hTREX1 vs hTREX2 selectivity” value in test [1] is given as “A (A = <25 fold selective for hTREX1)”.

On to `Cc1cc(C(c2cc(F)ccc2C#N)C(C)c2nc(C(=O)Nc3cnoc3)c(O)c(=O)n2C)nn1C` (single isomer, unassigned) [Example 112 D1E1], for which the IC50 against hTREX1 was 10 to 100 nM; at full length human TREX1, < 1 nM; at full length mouse TREX1, 1 to 10 nM. In test [1], the “hTREX1 vs hTREX2 selectivity” value is given as “C (C = >50 fold selective for hTREX1)”.

As for `Cc1nn(C)cc1C(c1ccccc1C#N)C(c1nc(C(=O)Nc2cnoc2)c(O)c(=O)n1C)C(F)(F)F` (single isomer, unassigned) [Example 41 D1E2], the IC50 against hTREX1 is < 10 nM; at full length human TREX1, < 1 nM; on full length mouse TREX1, 1 to 10 nM. In addition, the “hTREX1 vs hTREX2 selectivity” value in test [1] is given as “C (C = >50 fold selective for hTREX1)”.

Consider `COCCn1cc(C(c2cc(F)ccc2Cl)C(C)c2nc(C(=O)Nc3cnoc3)c(O)c(=O)n2C)cn1` (single isomer, unassigned) [Example 97 D1E1], for which the IC50 is > 100 nM against hTREX1, 1 to 10 nM on full length human TREX1 and 1 to 10 nM on full length mouse TREX1. In test [1], the “hTREX1 vs hTREX2 selectivity” value is “C (C = >50 fold selective for hTREX1)”.

On to `Cc1cnc(C(c2ccccc2C#N)C(C)c2nc(C(=O)Nc3cnoc3)c(O)c(=O)n2C)c(C)n1` (single isomer, unassigned) [Example 123 D1E1], for which the IC50 at hTREX1 is > 100 nM; on full length human TREX1, 1 to 10 nM; at full length mouse TREX1, 1 to 10 nM. Moreover, the “hTREX1 vs hTREX2 selectivity” value in test [1] was “C (C = >50 fold selective for hTREX1)”.

Turning to `COCCn1ncc(C(c2cc(F)ccc2Cl)C(C)c2nc(C(=O)Nc3cnoc3)c(O)c(=O)n2C)c1C` (single isomer, unassigned) [Example 108 D1E1], the IC50 is > 100 nM at hTREX1, 1 to 10 nM on full length human TREX1 and > 10 nM on full length mouse TREX1. Also, the “hTREX1 vs hTREX2 selectivity” value in test [1] is on record as “A (A = <25 fold selective for hTREX1)”.

For `Cc1nnc(C(c2ccccc2Cl)C(C)c2nc(C(=O)Nc3cnoc3)c(O)c(=O)n2C)o1` (single isomer, unassigned) [Example 156 D1E1], the results for the IC50 on hTREX1, at full length human TREX1 and on full length mouse TREX1 were > 100 nM, > 10 nM and > 10 nM, respectively. Also, in test [1], the “hTREX1 vs hTREX2 selectivity” value is “A (A = <25 fold selective for hTREX1)”.

With `Cc1ncc(C(c2ccccc2Cl)C(C)c2nc(C(=O)Nc3cnoc3)c(O)c(=O)n2C)nc1C` (single isomer, unassigned) [Example 125 D2E1], the IC50 against hTREX1 is > 100 nM; on full length human TREX1 it was 1 to 10 nM; on full length mouse TREX1, > 10 nM. Besides, in test [1], the “hTREX1 vs hTREX2 selectivity” value is on record as “A (A = <25 fold selective for hTREX1)”.

As for `Cc1ncc(C(c2ccccc2Cl)C(C)c2nc(C(=O)Nc3cnoc3)c(O)c(=O)n2C)cn1` (single isomer, unassigned) [Example 44 D1E2], the IC50 at hTREX1 was 10 to 100 nM; at full length human TREX1, 1 to 10 nM; at full length mouse TREX1, 1 to 10 nM. Further, the “hTREX1 vs hTREX2 selectivity” value in test [1] is listed as “B (B = 25 to 50-fold selective for hTREX1)”.
